Test results: US7247441B2, “Nucleic acid sequence and protein in addition to polypeptides coding for mannitol dehydrogenases or parts thereof and the production and use thereof in diagnosis and therapy” (Biomay Produktions- Und Handels-Aktienge Sellschaft, priority 2002, dated 2007)

Molecular target: T1, Cladosporium herbarum mannitol dehydrogenase (Cladosporium herbarum, UniProt P0C0Y5)
T1 construct: the enzyme activity was determined with the traditionally purified protein; from tissue; host or cells: Cladosporium herbarum extract (ammonium sulfate precipitation, HIC, anion exchange)
T1 sequence (P0C0Y5 whole entry): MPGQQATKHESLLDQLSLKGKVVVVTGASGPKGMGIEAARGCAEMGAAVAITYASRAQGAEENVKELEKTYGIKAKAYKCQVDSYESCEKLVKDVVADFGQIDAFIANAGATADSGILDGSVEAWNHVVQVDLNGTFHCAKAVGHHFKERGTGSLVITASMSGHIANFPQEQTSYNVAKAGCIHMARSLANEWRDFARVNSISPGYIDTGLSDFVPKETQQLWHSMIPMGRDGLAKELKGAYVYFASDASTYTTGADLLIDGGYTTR
Experiment: Enzyme activity determination, absorption of NADPH at 340 nm
Type: biochemical
Protocol: The experiments reveal that the highly purified major allergen of Cladosporium herbarum is indeed a mannitol dehydrogenase which catalyzes the following metabolic reaction: Fructose+NADPH+H^+ ? mannitol+NADP^+. […] The method of the activity determination is described in example 3.
To confirm the results according to the invention, the enzyme activity was determined with the traditionally purified protein. The absorption of NADPH was measured in a photometer at 340 nm.
• 50 mM Tris-HCl, pH 7.5 • 0.25 mM NADPH or NADH • D-fructose or fructose-6-phosphate (0.1; 0.2; 0.4; 0.6; 0.8; 1.0; 1.2 M) • H2O to 1 ml • the reaction is started with 0.5 μl of MtDH Results: • Reaction with fructose and NADPH • No reaction with fructose-6-phosphate and NADH

Row | SMILES | activity as cosubstrate or substrate of the mannitol dehydrogenase | effect on the reaction fructose + NADPH to mannitol + NADP+
1 | O=C(CO)[C@@H](O)[C@H](O)[C@H](O)COP(=O)(O)O [fructose-6-phosphate] | not active as substrate | inhibitory effect
2 | NC(=O)C1=CN([C@@H]2O[C@H](COP(=O)(O)OP(=O)(O)OC[C@H]3O[C@@H](n4cnc5c(N)ncnc54)[C@H](O)[C@@H]3O)[C@@H](O)[C@H]2O)C=CC1 [NADH] | not active as cosubstrate | –
